These results are taken from patent publication US10980776B2, “Synergistic pharmaceutical combination for the treatment of squamous cell carcinoma of head and neck” (Piramal Enterprises Limited, priority 2011, dated 2021).

One test deals with SCC-25 cells. Kind of test: Combination studies (single and sequential combination dosing), % cytotoxicity in SCC-25 cells. To be noted: Homo sapiens, SCC-25, SCC-25; for cytotoxicity at 1.1 µM: single agent at IC50 (compound B 1.1 μM). On the procedure:
Logarithmically growing cells were plated at a density of 3×10^3 cells/well and allowed to recover overnight. […] After 72 hours, cell toxicity was determined by CCK-8 (Cell Counting Kit-8) reagent (Dojindo Molecular Technologies, Japan); WST-8 (2-(2-methoxy-4-nitrophenyl)-3-(4-nitrophenyl)-5-(2, 4-disulfophenyl)]-2H-tetrazolium, monosodium salt) assay. In accordance with the manufacturer's instructions, 5 μl/well CCK-8 reagent was added and plates were incubated for 2 hours. The toxicity was determined by measuring the absorbance on Tecan Sapphire multi-fluorescence micro-plate reader (Tecan, Germany, GmbH) at a wavelength of 450 nm corrected to 650 nm and normalized to controls.
CCK-8 allows convenient assays using Dojindo's tetrazolium salt, WST [8[(2-(2-methoxy-4-nitrophenyl)-3-(4-nitrophenyl)-5-(2,4-disulfophenyl)-2H-tetrazolium, monosodium salt], which produces a water-soluble formazan dye upon bioreduction in the presence of an electron carrier, 1-Methoxy PMS. CCK-8 solution is added directly to the cells; no pre-mixing of components is required. CCK-8 is a sensitive nonradioactive colorimetric assay for determining the number of viable cells in cell proliferation and cytotoxicity assays. WST-8 is bio-reduced by cellular dehydrogenases to an orange formazan product that is soluble in tissue culture medium. The amount of formazan produced is directly proportional to the number of living cells. The detection sensitivity of cell proliferation assays using WST-8 is higher than assays using the other tetrazolium salts such as MIT, XTT, MTS or WST-1. Optical Density was determined at measurement wavelength of 450 nm and reference wave length of 630 nm.
Sorafenib in the following dose of final concentration 0.18 μM and compound A in the following doses of final concentration 0.1 μM, 0.4 μM and 4.1 μM were analyzed in single dose and in all possible combinations of the dose range for the two anticancer agents mentioned above. The sequence of treatment is as follows; the SCC-25 cells were treated with sorafenib for 0 to 24 hrs. At the end of 24 hrs the cells were washed two times with plain MEM (minimum essential media) medium. Fresh MEM with 10% serum (200 μL/well) was added, followed by treatment with compound A from 24 hrs to 96 hrs.
Sorafenib in the following dose of final concentration 0.18 μM and compound B in the following doses of final concentration 0.2 μM, 1.1 μM and 4.8 μM were analyzed in single dose and in all possible combinations of the dose range for the two anticancer agents mentioned above. The sequence of treatment is as follows; the SCC-25 cells were treated with sorafenib for 0 to 24 hrs. At the end of 24 hrs the cells were washed two times with plain MEM medium. Fresh MEM with 10% serum (200 μL/well) was added, followed by treatment with compound B from 24 hrs to 96 hrs.
Lapatinib in the following dose of final concentration 0.2 μM and compound A in the following doses of final concentration 0.2 μM, 0.5 μM and 3.3 μM were analyzed in single dose and in all possible combinations of the dose range for the two drugs mentioned above. The sequence of treatment is as follows; the SCC-25 cells were treated with lapatinib for 0 to 24 hrs. At the end of 24 hrs the cells were washed two times with plain MEM medium. Fresh MEM with 10% serum (200 μL/well) was added, followed by treatment with compound A from 24 hrs to 96 hrs.
Lapatinib in the following dose of final concentration 0.2 μM and compound B in the following doses of final concentration 0.2 μM, 1.1 μM and 4.8 μM were analyzed in single dose and in all possible combinations of the dose range for the two drugs mentioned above. The sequence of treatment is as follows; the SCC-25 cells were treated with lapatinib for 0 to 24 hrs. At the end of 24 hrs the cells were washed two times with plain MEM medium. Fresh MEM with 10% serum (200 μL/well) was added, followed by treatment with compound A from 24 hrs to 96 hrs.

The test system of the next test is FADU cells. Kind of test: CCK-8 cytotoxicity assay, determination of inhibitory concentrations in FADU cells. The test is classed as cell-based, human. To be noted: 72 hr.

For orientation: IC30 means the point of the concentration-response curve where the effect stands at 30%. Low readings indicate an effect from little substance, high ones a need for much substance. The term IC70 denotes the point of the concentration-response curve where the effect stands at 70%. As a reminder, the IC50 is the concentration that gives 50% inhibition. In general, IC90 refers to the point of the concentration-response curve where the effect stands at 90%. A low value points to an effect from little substance.

In the case of `CN1CC[C@@H](c2c(O)cc(O)c3c(=O)cc(-c4ccc(C(F)(F)F)cc4Cl)oc23)[C@@H]1CO.Cl` [Compound B, (+)-trans-2-(2-chloro-4-trifluoromethyl-phenyl)-5,7-dihydroxy-8-(2-hydroxymethyl-1-methyl-pyrrolidin-3-yl)-chromen-4-one hydrochloride], the cytotoxicity at 0.2 µM with SCC-25 cells (single agent at IC30 (lapatinib 0.2 μM; compound B 0.2 μM)) and in the test on SCC-25 cells (single agent at IC30 (sorafenib 0.18 μM; compound B 0.2 μM)) was 16% in each case. The cytotoxicity at 1.1 µM in the test on SCC-25 cells (lapatinib study) and in the test with SCC-25 cells (sorafenib study) was 19% each time. Besides, the IC30 with FADU cells was determined as 2.3 µM. Further, the IC70 in the test on FADU cells came out at 9.6 µM. For the same compound, the half-inhibitory concentration (IC50) in the test on FADU cells (Homo sapiens) was 4.1 µM. This compound also displayed a 90% effect concentration (IC90) with FADU cells (Homo sapiens) of 31.4 µM.
